The numbers were not newly measured in paper PMC9120017, “Inhibition mechanism of the chloride channel TMEM16A by the pore blocker 1PBC” (Nature Communications, 2022), which cites them from elsewhere.

For this data set, the system named is TMEM16A. The conditions noted are these: cited from earlier work.

Regarding `O=C(O)c1c2ccccc2cc2ccccc12` [9-AC, 9-anthracene carboxylate], the “Inhibition of TMEM16A” value is reported as “inhibit TMEM16A”.
Turning to `O=C(Nc1ccc([N+](=O)[O-])cc1Cl)c1cc(Cl)ccc1O` [niclosamide], the “Inhibition of TMEM16A” value is recorded as “inhibit TMEM16A”.
Consider `O=S(=O)(O)c1cc(N=C=S)ccc1C=Cc1ccc(N=C=S)cc1S(=O)(=O)O` [DIDS, 4,4′-Diisothiocyanato-2,2′-stilbenedisulfonic acid], for which the “Inhibition of TMEM16A” value is recorded as “inhibit TMEM16A”.
`O=C(O)c1cccnc1Nc1cccc(C(F)(F)F)c1` [NFA]: the “Selectivity for anion channels of the TMEM16 family over the scramblase TMEM16F” value is recorded as “selective for anion channels of the TMEM16 family over the scramblase TMEM16F”.
Regarding `O=C(O)c1cc([N+](=O)[O-])ccc1NCCCc1ccccc1` [NPPB], the “Selectivity for anion channels of the TMEM16 family over the scramblase TMEM16F” value is given as “selective for anion channels of the TMEM16 family over the scramblase TMEM16F”.
